Test results as given in patent US10294221B2, “1, 3, 4-thiadiazole compounds and their use in treating cancer” (AstraZeneca AB, priority 2014, dated 2019).

Experiments:
[1] = test system: human NSCLC NCI-H3122 cells xenograft; test: Mouse Xenograft Model, monotherapy (NCI-H3122); format: in vivo; settings: Female Harlan Nude mice, 50 mg/kg once daily peroral for 17 days, monotherapy (FIG. 2)
Description: Female Harlan Nude mice were transplanted s.c. with human NSCLC NCI-H3122 cells to determine the in-vivo anti-tumour activity of GLS inhibitors. 5×10^6 cells in 50% matrigel (BD Bioscience) were injected s.c. on the left flank of the animals. Animals were randomised into groups of 10-15 when tumours reached a volume of ˜200-300 mm^3 and treatment commenced. […] Tumours were measured twice weekly by calliper and volume of tumours calculated using elliptical formula (π/6×width×width×length). Statistical significance was evaluated using a one tailed, t-test. Example 2 was formulated in a 1% Polysorbate 80 and pH adjusted with 1M HCL to a final pH concentration of pH3.5. Data is presented as mean tumour volume with calculated mean standard error bars.

[2] = test system: human NSCLC NCI-H1703 cells xenograft; test: Mouse Xenograft Model, combination therapy study (NCI-H1703); format: in vivo; settings: Male Scid mice
Description: Male Scid mice were transplanted s.c. with human NSCLC NCI-H1703 cells (ATCC-CRL-5889) to determine the in-vivo anti-tumour activity of GLS inhibitors. 1×10^7 cells in 50% matrigel (BD Bioscience) were injected s.c. on the left flank of the animals.
Animals were randomised into groups of 10-12 when tumours reached a volume of ˜200-300 mm^3 and treatment commenced. […] Tumours were measured twice weekly by calliper and volume of tumours calculated using elliptical formula (π/6×width×width×length). Statistical significance was evaluated using a one tailed, t-test. Taxotere® (Sanofi) was formulated in a physiological saline. Example 2 was formulated in a 1% Polysorbate 80 and pH adjusted with 1M HCL to a final pH concentration of pH3.5. Data is presented as mean tumour volume with calculated mean standard error bars.

CO[C@H](C(=O)Nc1nnc(N[C@@H]2CCN(c3cccnn3)C2)s1)c1ccccc1 [Example 2(a), (2S)-2-Methoxy-2-phenyl-N-[5-[[(3R)-1-pyridazin-3-ylpyrrolidin-3-yl]amino]-1,3,4-thiadiazol-2-yl]acetamide]
Tumour growth (mean tumour volume), NCI-H3122 xenograft [1]: inhibition of growth in-vivo
Tumour growth (mean tumour volume), NCI-H1703 xenograft, combination with Taxotere ([2]; 100 mg/kg once daily peroral for 16 days in combination with once weekly intra-venous Taxotere (FIG. 3)): slight regression compared to Taxotere® monotherapy treatment
Tumour growth (mean tumour volume), NCI-H1703 xenograft, monotherapy ([2]; 100 mg/kg once daily peroral for 16 days, monotherapy (FIG. 3)): inhibition of growth in-vivo
